In patent US10047098B2, “C5-C6-oxacyclic fused iminopyrimidinone compounds as bace inhibitors, compositions, and their use” (Merck Sharp & Dohme Corp., priority 2014, dated 2018):

Columns and labels:
[1] = molecular target: Recombinant human soluble BACE1 catalytic domain (Homo sapiens (Human), UniProt P56817); assay: BACE1 HTRF FRET Assay; type: biochemical; conditions: Ki calculated from IC50 using the Cheng-Prusoff equation; QSY7-APPswe-Eu substrate, pH 5.0; read-out: BACE-1 Ki
Description: Reagents: Na^+-Acetate pH 5.0; 1% Brij-35; Glycerol; Dimethyl Sulfoxide (DMSO); Recombinant human soluble BACE1 catalytic domain (>95% pure); APP Swedish mutant peptide substrate (QSY7-APP^swe-Eu): QSY7-EISEVNLDAEFC-Europium-amide.
A homogeneous time-resolved FRET assay can be used to determine IC50 values for inhibitors of the soluble human BACE1 catalytic domain. This assay monitors the increase of 620 nm fluorescence that resulted from BACE1 cleavage of an APPswedish APP^swe mutant peptide FRET substrate (QSY7-EISEVNLDAEFC-Europium-amide). This substrate contains an N-terminal QSY7 moiety that serves as a quencher of the C-terminal Europium fluorophore (620 nm Em). In the absence of enzyme activity, 620 nm fluorescence is low in the assay and increased linearly over 3 hours in the presence of uninhibited BACE1 enzyme. Inhibition of BACE1 cleavage of the QSY7-APP^swe-Eu substrate by inhibitors is manifested as a suppression of 620 nm fluorescence.
Varying concentrations of inhibitors at 3× the final desired concentration in a volume of 10 ul are preincubated with purified human BACE1 catalytic domain (3 nM in 10 μl) for 30 minutes at 30° C. in reaction buffer containing 20 mM Na-Acetate pH 5.0, 10% glycerol, 0.1% Brij-35 and 7.5% DSMO. Reactions are initiated by addition of 10 μl of 600 nM QSY7-APP^swe-Eu substrate (200 nM final) to give a final reaction volume of 30 μl in a 384 well Nunc HTRF plate. The reactions are incubated at 30° C. for 1.5 hours. The 620 nm fluorescence is then read on a Rubystar HTRF plate reader (BMG Labtechnologies) using a 50 millisecond delay followed by a 400 millisecond acquisition time window. Inhibitor IC50 values are derived from non-linear regression analysis of concentration response curves. Ki values are then calculated from IC50 values using the Cheng-Prusoff equation using a previously determined […] of 8 μM for the QSY7-APP^swe-Eu substrate at BACE1.

[2] = molecular target: purified human autoBACE-2 (Homo sapiens (Human), UniProt Q9Y5Z0); assay: BACE-2 Assay (BACE-HTRF assay); type: biochemical; conditions: Ki calculated from IC50 using the Cheng-Prusoff equation; QSY7-EISEVNLDAEFC-Eu-amide substrate, pH 5.0
Procedure: Inhibitor IC50s at purified human autoBACE-2 are determined in a time-resolved endpoint proteolysis assay that measures hydrolysis of the QSY7-[…]-Eu-amide FRET peptide substrate (BACE-HTRF assay). […] DMSO is present at 5% final concentration in the assay. Following laser excitation of sample wells at 320 nm, the fluorescence signal at 620 nm is collected for 400 ms following a 50 μs delay on a RUBYstar HTRF plate reader (BMG Labtechnologies). Raw RFU data is normalized to maximum (1.0 nM BACE/DMSO) and minimum (no enzyme/DMSO) RFU values. […] The Ki values are calculated from the IC50 using the Cheng-Prusoff equation.

Sequence of purified human autoBACE-2 (Q9Y5Z0 63-473 limits assumed): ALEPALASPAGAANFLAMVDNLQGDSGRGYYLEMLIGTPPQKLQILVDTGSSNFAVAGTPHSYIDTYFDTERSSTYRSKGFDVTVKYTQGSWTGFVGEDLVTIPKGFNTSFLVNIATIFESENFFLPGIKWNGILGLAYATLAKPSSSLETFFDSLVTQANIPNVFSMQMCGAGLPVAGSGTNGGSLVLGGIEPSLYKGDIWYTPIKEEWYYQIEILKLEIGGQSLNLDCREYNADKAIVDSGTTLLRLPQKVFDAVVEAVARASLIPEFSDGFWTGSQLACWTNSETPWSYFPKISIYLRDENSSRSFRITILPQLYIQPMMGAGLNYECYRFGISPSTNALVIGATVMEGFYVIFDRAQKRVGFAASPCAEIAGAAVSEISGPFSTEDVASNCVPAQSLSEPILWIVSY
Sequence of Recombinant human soluble BACE1 catalytic domain (P56817 75-416): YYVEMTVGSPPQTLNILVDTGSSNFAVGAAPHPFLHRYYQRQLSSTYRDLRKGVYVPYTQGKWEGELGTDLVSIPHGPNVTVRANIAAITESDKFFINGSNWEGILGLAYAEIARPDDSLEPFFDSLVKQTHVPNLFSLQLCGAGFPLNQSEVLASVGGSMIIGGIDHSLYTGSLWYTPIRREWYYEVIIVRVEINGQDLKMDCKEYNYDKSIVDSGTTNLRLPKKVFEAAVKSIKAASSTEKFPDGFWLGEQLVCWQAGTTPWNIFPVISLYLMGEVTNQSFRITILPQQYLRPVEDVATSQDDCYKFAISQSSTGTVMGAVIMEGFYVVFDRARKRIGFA

| SMILES | Ki [1] | Ki [2] |
| --- | --- | --- |
| Cc1nccc(Oc2ccc(F)c([C@]34CO[C@@H](C5CC5)C[C@H]3C(=O)N(C)C(=N)N4)c2)n1 [Example 22, (4aR,6R,8aS)-6-cyclopropyl-8a-(2-fluoro-5-((2-methylpyrimidin-4-yl)oxy)phenyl)-2-imino-3-methylhexahydro-1H-pyrano[3,4-d]pyrimidin-4(4aH)-one] | 0.057 µM | 0.182 µM |
| C[C@H]1C[C@H]2C(=O)N(C)C(=N)N[C@@]2(c2cc(OCC3CC3)ccc2F)CO1 [Example 23, (4aR,6S,8aS)-8a-(5-(cyclopropylmethoxy)-2-fluorophenyl)-2-imino-3,6-dimethylhexahydro-1H-pyrano[3,4-d]pyrimidin-4(4aH)-one] | 0.013 µM | 0.008 µM |
| C[C@H]1C[C@H]2C(=O)N(C)C(=N)N[C@@]2(c2cc(OCC34CC(C#N)(C3)C4)ccc2F)CO1 [Example 26, 3-((4-fluoro-3-((4aR,6S,8aS)-2-imino-3,6-dimethyl-4-oxohexahydro-1H-pyrano[3,4-d]pyrimidin-8a(8H)-yl)phenoxy)methyl)bicyclo[1.1.1]pentane-1-carbonitrile] | 0.008 µM | 0.098 µM |
| CN1C(=N)N[C@@]2(c3cc(Oc4cncc(C(F)F)n4)ccc3F)CO[C@@H](C3CC3)C[C@H]2C1=O [Example 29, (4aR,6R,8aS)-6-cyclopropyl-8a-(5-((6-(difluoromethyl)pyrazin-2-yl)oxy)-2-fluorophenyl)-2-imino-3-methylhexahydro-1H-pyrano[3,4-d]pyrimidin-4(4aH)-one] | 0.016 µM | 0.054 µM |
| COC[C@H]1C[C@H]2C(=O)N(C)C(=N)N[C@@]2(c2cc(Oc3cc(C#N)ccn3)ccc2F)CO1 [Example 30, 2-(4-fluoro-3-((4aR,6R,8aS)-2-imino-6-(methoxymethyl)-3-methyl-4-oxohexahydro-1H-pyrano[3,4-d]pyrimidin-8a(8H)-yl)phenoxy)isonicotinonitrile] | 0.003 µM | 0.025 µM |
| COC[C@H]1C[C@H]2C(=O)N(C)C(=N)N[C@@]2(c2cc(Oc3ncccc3F)ccc2F)CO1 [Example 31, (4aR,6R,8aS)-8a-(2-fluoro-5-((3-fluoropyridin-2-yl)oxy)phenyl)-2-imino-6-(methoxymethyl)-3-methylhexahydro-1H-pyrano[3,4-d]pyrimidin-4(4aH)-one] | 0.004 µM | 0.008 µM |
| COC[C@H]1C[C@H]2C(=O)N(C)C(=N)N[C@@]2(c2cc(OCC3CC3)ccc2F)CO1 [Example 32, (4aR,6R,8aS)-8a-(5-(cyclopropylmethoxy)-2-fluorophenyl)-2-imino-6-(methoxymethyl)-3-methylhexahydro-1H-pyrano[3,4-d]pyrimidin-4(4aH)-one] | 0.021 µM | 0.009 µM |
| CN1C(=N)N[C@@]2(c3cc(Oc4cccc(-n5cccn5)n4)ccc3F)CO[C@@H](C3CC3)C[C@H]2C1=O [Example 34, (4aR,6R,8aS)-8a-(5-((6-(1H-pyrazol-1-yl)pyridin-2-yl)oxy)-2-fluorophenyl)-6-cyclopropyl-2-imino-3-methylhexahydro-1H-pyrano[3,4-d]pyrimidin-4(4aH)-one] | 0.0022 µM | 0.0135 µM |
| CN1C(=N)N[C@@]2(c3cc(Oc4cccc(-c5cocn5)c4)ccc3F)CO[C@@H](C3CC3)C[C@H]2C1=O [Example 35] | 0.013 µM | 0.086 µM |
| C[C@H]1C[C@H]2C(=O)N(C)C(=N)N[C@@]2(c2cc(Oc3ncc(F)cc3F)ccc2F)CO1 [Example 36, (4aR,6S,8aS)-8a-(5-((3,5-difluoropyridin-2-yl)oxy)-2-fluorophenyl)-2-imino-3,6-dimethylhexahydro-1H-pyrano[3,4-d]pyrimidin-4(4aH)-one] | 0.0089 µM | 0.024 µM |
| CN1C(=N)N[C@@]2(c3cc(Oc4cnccn4)ccc3F)CO[C@@H](C3CC3)C[C@H]2C1=O [Example 39, (4aR,6R,8aS)-6-cyclopropyl-8a-(2-fluoro-5-(pyrazin-2-yloxy)phenyl)-2-imino-3-methylhexahydro-1H-pyrano[3,4-d]pyrimidin-4(4aH)-one] | 0.013 µM | 0.073 µM |
| CN1C(=N)N[C@@]2(c3cc(Oc4ccncc4)ccc3F)CO[C@@H](C3CC3)C[C@H]2C1=O [Example 40, (4aR,6R,8aS)-6-cyclopropyl-8a-(2-fluoro-5-(pyridin-4-yloxy)phenyl)-2-imino-3-methylhexahydro-1H-pyrano[3,4-d]pyrimidin-4(4aH)-one] | 0.054 µM | 0.011 µM |
| CN1C(=N)N[C@@]2(c3cc(Oc4ccnnc4)ccc3F)CO[C@@H](C3CC3)C[C@H]2C1=O [Example 41, (4aR,6R,8aS)-6-cyclopropyl-8a-(2-fluoro-5-(pyridazin-4-yloxy)phenyl)-2-imino-3-methylhexahydro-1H-pyrano[3,4-d]pyrimidin-4(4aH)-one] | 0.106 µM | 0.065 µM |
| COc1cncc(Oc2ccc(F)c([C@]34CO[C@@H](C5CC5)C[C@H]3C(=O)N(C)C(=N)N4)c2)n1 [Example 42, (4aR,6R,8aS)-6-cyclopropyl-8a-(2-fluoro-5-((6-methoxypyrazin-2-yl)oxy)phenyl)-2-imino-3-methylhexahydro-1H-pyrano[3,4-d]pyrimidin-4(4aH)-one] | 0.007 µM | 0.051 µM |
| CN1C(=N)N[C@@]2(c3cc(Oc4ncccn4)ccc3F)CO[C@@H](C3CC3)C[C@H]2C1=O [Example 43, (4aR,6R,8aS)-6-cyclopropyl-8a-(2-fluoro-5-(pyrimidin-2-yloxy)phenyl)-2-imino-3-methylhexahydro-1H-pyrano[3,4-d]pyrimidin-4(4aH)-one] | 0.052 µM | 0.191 µM |

Next, values leading:

| Ki [1] | Ki [2] | SMILES |
| --- | --- | --- |
| 0.011 µM | 0.01 µM | CN1C(=N)N[C@@]2(c3cc(OCC4CC4)ccc3F)CO[C@@H](C3CC3)C[C@H]2C1=O [Example 24, (4aR,6R,8aS)-6-cyclopropyl-8a-(5-(cyclopropylmethoxy)-2-fluorophenyl)-2-imino-3-methylhexahydro-1H-pyrano[3,4-d]pyrimidin-4(4aH)-one] |
| 0.027 µM | 0.046 µM | CN1C(=N)N[C@@]2(c3cc(Oc4cccc(C#N)c4)ccc3F)CO[C@@H](C3CC3)C[C@H]2C1=O [Example 25, 3-(3-((4aR,6R,8aS)-6-cyclopropyl-2-imino-3-methyl-4-oxohexahydro-1H-pyrano[3,4-d]pyrimidin-8a(8H)-yl)-4-fluorophenoxy)benzonitrile] |
| 0.01 µM | 0.051 µM | CN1C(=N)N[C@@]2(c3cc(Oc4cncc(C#N)c4)ccc3F)CO[C@@H](C3CC3)C[C@H]2C1=O [Example 27, 5-(3-((4aR,6R,8aS)-6-cyclopropyl-2-imino-3-methyl-4-oxohexahydro-1H-pyrano[3,4-d]pyrimidin-8a(8H)-yl)-4-fluorophenoxy)nicotinonitrile] |
| 0.136 µM | 0.627 µM | CN1C(=N)N[C@@]2(c3cc(-c4cncnc4)ccc3F)CO[C@@H](C3CC3)C[C@H]2C1=O [Example 28, (4aR,6R,8aS)-6-cyclopropyl-8a-(2-fluoro-5-(pyrimidin-5-yl)phenyl)-2-imino-3-methylhexahydro-1H-pyrano[3,4-d]pyrimidin-4(4aH)-one] |
| 0.009 µM | 0.127 µM | CN1C(=N)N[C@@]2(c3cc(OCC45CC(C#N)(C4)C5)ccc3F)CO[C@@H](C3CC3)C[C@H]2C1=O [Example 37, 3-((3-((4aR,6R,8aS)-6-cyclopropyl-2-imino-3-methyl-4-oxohexahydro-1H-pyrano[3,4-d]pyrimidin-8a(8H)-yl)-4-fluorophenoxy)methyl)bicyclo[1.1.1]pentane-1-carbonitrile] |
| 0.206 µM | 0.398 µM | CN1C(=N)N[C@@]2(c3cc(C#N)ccc3F)CO[C@@H](C3CC3)C[C@H]2C1=O [Example 38, 3-((4aR,6R,8aS)-6-cyclopropyl-2-imino-3-methyl-4-oxohexahydro-1H-pyrano[3,4-d]pyrimidin-8a(8H)-yl)-4-fluorobenzonitrile] |
| 0.03 µM | 0.02 µM | CN1C(=N)N[C@@]2(c3cc(OCC4CCC4)ccc3F)CO[C@@H](C3CC3)C[C@H]2C1=O [Example 44, (4aR,6R,8aS)-8a-(5-(cyclobutylmethoxy)-2-fluorophenyl)-6-cyclopropyl-2-imino-3-methylhexahydro-1H-pyrano[3,4-d]pyrimidin-4(4aH)-one] |
